ChEMBL document CHEMBL4482311, “Modulators of Prostate-Specific G-Protein Receptor (PSGR/OR51E2) and Methods of Using Same” (2018)
The source made the active and inactive calls.

What was measured:
[1] = biological target: T1, Olfactory receptor 51E2 (Homo sapiens) (UniProt Q9H255); assay: Agonist activity at PSGR/OR51E2 in human LNCaP cells assessed as induction of change in extracellular metabolites level by measuring tyramine level at 1 mM incubated for 72 hrs by GC/MS analysis; format: cell-based
T1 sequence (whole entry): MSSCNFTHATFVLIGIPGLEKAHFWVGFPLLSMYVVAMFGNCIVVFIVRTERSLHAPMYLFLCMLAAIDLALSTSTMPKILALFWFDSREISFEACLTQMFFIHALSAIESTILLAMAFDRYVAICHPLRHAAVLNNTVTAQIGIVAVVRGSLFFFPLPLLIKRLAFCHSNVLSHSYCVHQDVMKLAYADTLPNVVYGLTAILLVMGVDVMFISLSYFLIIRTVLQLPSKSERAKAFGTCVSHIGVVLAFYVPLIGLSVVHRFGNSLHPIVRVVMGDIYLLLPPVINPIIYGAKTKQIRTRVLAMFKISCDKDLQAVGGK

[2] = biological target: T1, Olfactory receptor 51E2 (Homo sapiens); assay: Agonist activity at PSGR/OR51E2 in human LNCaP cells assessed as induction of change in extracellular metabolites level by measuring spermine level at 1 mM incubated for 72 hrs by GC/MS analysis; format: cell-based
[3] = biological target: T1, Olfactory receptor 51E2 (Homo sapiens); assay: Agonist activity at PSGR/OR51E2 in human LNCaP cells assessed as induction of change in extracellular metabolites level by measuring lactose level at 1 mM incubated for 72 hrs by GC/MS analysis; format: cell-based
[4] = biological target: T1, Olfactory receptor 51E2 (Homo sapiens); assay: Agonist activity at PSGR/OR51E2 in human LNCaP cells assessed as induction of change in extracellular metabolites level by measuring guanine level at 1 mM incubated for 72 hrs by GC/MS analysis; format: cell-based
[5] = biological target: T1, Olfactory receptor 51E2 (Homo sapiens); assay: Agonist activity at PSGR/OR51E2 in human LNCaP cells assessed as induction of change in extracellular metabolites level by measuring spermidine level at 1 mM incubated for 72 hrs by GC/MS analysis; format: cell-based
[6] = biological target: T1, Olfactory receptor 51E2 (Homo sapiens); assay: Agonist activity at PSGR/OR51E2 in human LNCaP cells assessed as induction of change in extracellular metabolites level by measuring glutamine level at 1 mM incubated for 72 hrs by GC/MS analysis; format: cell-based
[7] = biological target: T1, Olfactory receptor 51E2 (Homo sapiens); assay: Agonist activity at PSGR/OR51E2 in human LNCaP cells assessed as induction of change in extracellular metabolites level by measuring ornithine level at 1 mM incubated for 72 hrs by GC/MS analysis; format: cell-based
[8] = biological target: T1, Olfactory receptor 51E2 (Homo sapiens); assay: Agonist activity at PSGR/OR51E2 in human LNCaP cells assessed as induction of change in extracellular metabolites level by measuring threitol/erythritol level at 1 mM incubated for 72 hrs by GC/MS analysis; format: cell-based
[9] = biological target: T1, Olfactory receptor 51E2 (Homo sapiens); assay: Agonist activity at PSGR/OR51E2 in human LNCaP cells assessed as induction of change in extracellular metabolites level by measuring lactic acid level at 1 mM incubated for 72 hrs by GC/MS analysis; format: cell-based
[10] = biological target: T1, Olfactory receptor 51E2 (Homo sapiens); assay: Agonist activity at PSGR/OR51E2 in human LNCaP cells assessed as induction of change in extracellular metabolites level by measuring serine level at 1 mM incubated for 72 hrs by GC/MS analysis; format: cell-based
[11] = biological target: T1, Olfactory receptor 51E2 (Homo sapiens); assay: Agonist activity at PSGR/OR51E2 in human LNCaP cells assessed as induction of change in extracellular metabolites level by measuring glycine level at 1 mM incubated for 72 hrs by GC/MS analysis; format: cell-based
[12] = biological target: T1, Olfactory receptor 51E2 (Homo sapiens); assay: Agonist activity at PSGR/OR51E2 in human LNCaP cells assessed as induction of change in extracellular metabolites level by measuring threonine level at 1 mM incubated for 72 hrs by GC/MS analysis; format: cell-based
[13] = biological target: T1, Olfactory receptor 51E2 (Homo sapiens); assay: Agonist activity at PSGR/OR51E2 in human LNCaP cells assessed as induction of change in extracellular metabolites level by measuring dehydro-alanine level at 1 mM incubated for 72 hrs by GC/MS analysis; format: cell-based
[14] = biological target: T1, Olfactory receptor 51E2 (Homo sapiens); assay: Agonist activity at PSGR/OR51E2 in human LNCaP cells assessed as induction of change in extracellular metabolites level by measuring aspartic acid level at 1 mM incubated for 72 hrs by GC/MS analysis; format: cell-based
[15] = biological target: T1, Olfactory receptor 51E2 (Homo sapiens); assay: Agonist activity at PSGR/OR51E2 in human LNCaP cells assessed as induction of change in extracellular metabolites level by measuring glutamic acid level at 1 mM incubated for 72 hrs by GC/MS analysis; format: cell-based
[16] = biological target: T1, Olfactory receptor 51E2 (Homo sapiens); assay: Agonist activity at PSGR/OR51E2 in human LNCaP cells assessed as induction of change in intracellular metabolites level by measuring tyramine level at 1 mM incubated for 72 hrs by GC/MS analysis; format: cell-based
[17] = biological target: T1, Olfactory receptor 51E2 (Homo sapiens); assay: Agonist activity at PSGR/OR51E2 in human LNCaP cells assessed as induction of change in intracellular metabolites level by measuring spermine level at 1 mM incubated for 72 hrs by GC/MS analysis; format: cell-based
[18] = biological target: T1, Olfactory receptor 51E2 (Homo sapiens); assay: Agonist activity at PSGR/OR51E2 in human LNCaP cells assessed as induction of change in intracellular metabolites level by measuring lactose level at 1 mM incubated for 72 hrs by GC/MS analysis; format: cell-based
[19] = biological target: T1, Olfactory receptor 51E2 (Homo sapiens); assay: Agonist activity at PSGR/OR51E2 in human LNCaP cells assessed as induction of change in intracellular metabolites level by measuring guanine level at 1 mM incubated for 72 hrs by GC/MS analysis; format: cell-based
[20] = biological target: T1, Olfactory receptor 51E2 (Homo sapiens); assay: Agonist activity at PSGR/OR51E2 in human LNCaP cells assessed as induction of change in intracellular metabolites level by measuring spermidine level at 1 mM incubated for 72 hrs by GC/MS analysis; format: cell-based
[21] = biological target: T1, Olfactory receptor 51E2 (Homo sapiens); assay: Agonist activity at PSGR/OR51E2 in human LNCaP cells assessed as induction of change in intracellular metabolites level by measuring glutamine level at 1 mM incubated for 72 hrs by GC/MS analysis; format: cell-based
[22] = biological target: T1, Olfactory receptor 51E2 (Homo sapiens); assay: Agonist activity at PSGR/OR51E2 in human LNCaP cells assessed as induction of change in intracellular metabolites level by measuring ornithine level at 1 mM incubated for 72 hrs by GC/MS analysis; format: cell-based
[23] = biological target: T1, Olfactory receptor 51E2 (Homo sapiens); assay: Agonist activity at PSGR/OR51E2 in human LNCaP cells assessed as induction of change in intracellular metabolites level by measuring threitol/erythritol level at 1 mM incubated for 72 hrs by GC/MS analysis; format: cell-based
[24] = biological target: T1, Olfactory receptor 51E2 (Homo sapiens); assay: Agonist activity at PSGR/OR51E2 in human LNCaP cells assessed as induction of change in intracellular metabolites level by measuring lactic acid level at 1 mM incubated for 72 hrs by GC/MS analysis; format: cell-based
[25] = biological target: T1, Olfactory receptor 51E2 (Homo sapiens); assay: Agonist activity at PSGR/OR51E2 in human LNCaP cells assessed as induction of change in intracellular metabolites level by measuring serine level at 1 mM incubated for 72 hrs by GC/MS analysis; format: cell-based
[26] = biological target: T1, Olfactory receptor 51E2 (Homo sapiens); assay: Agonist activity at PSGR/OR51E2 in human LNCaP cells assessed as induction of change in intracellular metabolites level by measuring glycine level at 1 mM incubated for 72 hrs by GC/MS analysis; format: cell-based
[27] = biological target: T1, Olfactory receptor 51E2 (Homo sapiens); assay: Agonist activity at PSGR/OR51E2 in human LNCaP cells assessed as induction of change in intracellular metabolites level by measuring threonine level at 1 mM incubated for 72 hrs by GC/MS analysis; format: cell-based
[28] = biological target: T1, Olfactory receptor 51E2 (Homo sapiens); assay: Agonist activity at PSGR/OR51E2 in human LNCaP cells assessed as induction of change in intracellular metabolites level by measuring dehydro-alanine level at 1 mM incubated for 72 hrs by GC/MS analysis; format: cell-based
[29] = biological target: T1, Olfactory receptor 51E2 (Homo sapiens); assay: Agonist activity at PSGR/OR51E2 in human LNCaP cells assessed as induction of change in intracellular metabolites level by measuring aspartic acid level at 1 mM incubated for 72 hrs by GC/MS analysis; format: cell-based
[30] = biological target: T1, Olfactory receptor 51E2 (Homo sapiens); assay: Agonist activity at PSGR/OR51E2 in human LNCaP cells assessed as induction of change in intracellular metabolites level by measuring glutamic acid level at 1 mM incubated for 72 hrs by GC/MS analysis; format: cell-based
LNCaP = assay: Growth inhibition of human LNCAP cells incubated for 7 days by CellTiter-Glo assay; format: functional, cell-based

CCC(=O)O
active: Activity [1] | Activity [2] | Activity [3] | Activity [4] | Activity [5] | Activity [6] | Activity [7] | Activity [8] | Activity [9] | Activity [10] | Activity [11] | Activity [12] | Activity [13] | Activity [14] | Activity [15] | Activity [16] | Activity [17] | Activity [18] | Activity [19] | Activity [20] | Activity [21] | Activity [22] | Activity [23] | Activity [24] | Activity [25] | Activity [26] | Activity [27] | Activity [28] | Activity [29] | Activity [30]

CC1=C(/C=C/C(C)=C/C=C/C(C)=C\C(=O)O)C(C)(C)CCC1
active: growth inhibition (GI) (LNCaP)
